Test results taken from patent US9637491B2, “Pyrazolo[4,3-D]pyrimidines as kinase inhibitors” (Origenis GmbH, priority 2012, dated 2017).

Molecular target: T1, SYK kinase (Homo sapiens, UniProt P43405)
T1 construct: purchased Invitrogen, Carlsbad
Experiment: SYK assay (OMNIA Kinase Assay, Invitrogen)
Format: biochemical
Conditions: SYK Activities; 1 mM ATP, 10 μM Omnia Peptide Substrate Tyr 7, 30° C.
Description: In the assay OMNIA® KINASE ASSAY by Invitrogen Corporation (Carlsbad) the effect of invention of a compound on the phosphorylation is determined by measurement of fluorescence intensity of a chelation-enhanced fluorophore called SOX. Upon phosphorylation of the peptide by the kinase of interest, Mg2+ is chelated to form a bridge between the SOX moiety and the phosphate group that is transferred to the specific tyrosine on the peptide. The fluorescence intensity is directly proportional to the amount of peptide phosphorylation.
To the wells of an 384 well small volume plate (Greiner, Frickenhausen) are added (i) the compound under test in 5% DMSO/distilled water (2 μl), (ii) 16 μl of the master mix containing ATP, DTT, Kinase Reaction Buffer, Omina Peptide Substrate Tyr 7 resulting in a final concentration of 1 mM ATP, 0.2 mM DTT and 10 μM Peptide Substrate. The Master Mix and the assay plate was incubated to reaction temperature before the measurement (30° C.). The reaction was started with addition of (iii) 2 μl 4 μg/ml SYK kinase (Invitrogen, Carlsbad). During measurement fluorescence intensitiy readings were collected using a TECAN M1000 at a wavelength of λex 360/λem 485 nm every 30 s for 30 minutes. The reaction velocity was plotted versus the inhibitor concentration to determine the IC50 using XLFit 5.0 (IDBS, Guildford) to fit to a sigmoidal dose response curve.

SMILES | IC50
CC(=O)N1CCN(c2ccc(Nc3nc(C4CC4)nc4cn[nH]c34)cn2)CC1 [Example 237, 1-(4-(5-((5-cyclopropyl-1H-pyrazolo[4,3-d]pyrimidin-7-yl)amino)pyridin-2-yl)piperazin-1-yl)ethan-1-one] | 10 to 100 nM
FC(F)(F)Cn1cc(Nc2nc(-c3ccoc3)nc3cn[nH]c23)cn1 [Example 375, 5-(furan-3-yl)-N-(1-(2,2,2-trifluoroethyl)-1H-pyrazol-4-yl)-1H-pyrazolo[4,3-d]pyrimidin-7-amine] | 100 to 1000 nM
c1ccc(Sc2ccc(Nc3nc(-c4ccc5cn[nH]c5c4)nc4cn[nH]c34)cc2)cc1 [Example 515, 5-(1H-indazol-6-yl)-N-(4-(phenylthio)phenyl)-1H-pyrazolo[4,3-d]pyrimidin-7-amine] | 100 to 1000 nM
CC1CC1c1nc(Nc2cnn(C3CCOCC3)c2)c2[nH]ncc2n1 (centres unmarked) [Example 103, 5-(2-methylcyclopropyl)-N-(1-(tetrahydro-2H-pyran-4-yl)-1H-pyrazol-4-yl)-1H-pyrazolo[4,3-d]pyrimidin-7-amine] | 100 to 1000 nM
CC(C)(C)n1cc(Nc2nc(C3CC3)nc3cn[nH]c23)cn1 [Example 228, N-(1-(tert-butyl)-1H-pyrazol-4-yl)-5-cyclopropyl-1H-pyrazolo[4,3-d]pyrimidin-7-amine] | 10 to 100 nM
CC(=O)N1CCN(c2ccc(Nc3nc(-c4c(F)cccc4F)nc4cn[nH]c34)cc2)CC1 [Example 13, 1-(4-(4-((5-(2,6-difluorophenyl)-1H-pyrazolo[4,3-d]pyrimidin-7-yl)amino)phenyl)piperazin-1-yl)ethan-1-one] | 100 to 1000 nM
CC(=O)N1CCN(c2ccc(Nc3nc(-c4ccccc4F)nc4cn[nH]c34)cc2)CC1 [Example 26, 1-(4-(4-((5-(2-fluorophenyl)-1H-pyrazolo[4,3-d]pyrimidin-7-yl)amino)phenyl)piperazin-1-yl)ethan-1-one] | 100 to 1000 nM
CC(C)n1cc(Nc2nc(-c3cccc(S(N)(=O)=O)c3)nc3cn[nH]c23)cn1 [Example 426, 3-(7-((1-isopropyl-1H-pyrazol-4-yl)amino)-1H-pyrazolo[4,3-d]pyrimidin-5-yl)benzenesulfonamide] | 10 to 100 nM
COCCn1cc(-c2nc(Nc3ccc(N4CCOCC4)cc3)c3[nH]ncc3n2)cn1 [Example 393, 5-(1-(2-methoxyethyl)-1H-pyrazol-4-yl)-N-(4-morpholinophenyl)-1H-pyrazolo[4,3-d]pyrimidin-7-amine] | 100 to 1000 nM
COCC(C)(C)n1cc(Nc2nc(C3CC3)nc3cn[nH]c23)cn1 [Example 283, 5-cyclopropyl-N-(1-(1-methoxy-2-methylpropan-2-yl)-1H-pyrazol-4-yl)-1H-pyrazolo[4,3-d]pyrimidin-7-amine] | 10 to 100 nM
CCN1C(=O)COc2ccc(Nc3nc(-c4ccoc4)nc4cn[nH]c34)cc21 [Example 485, 4-ethyl-6-((5-(furan-3-yl)-1H-pyrazolo[4,3-d]pyrimidin-7-yl)amino)-2H-benzo[b][1,4]oxazin-3(4H)-one] | 100 to 1000 nM
CC(=O)N1CCC(n2cc(Nc3nc(C4CC4)nc4cn[nH]c34)cn2)CC1 [Example 204, 1-(4-(4-((5-cyclopropyl-1H-pyrazolo[4,3-d]pyrimidin-7-yl)amino)-1H-pyrazol-1-yl)piperidin-1-yl)ethan-1-one] | < 10 nM
CC(=O)N1CCN(c2ccc(Nc3nc(-c4ccon4)nc4cn[nH]c34)cc2)CC1 [Example 72, 1-(4-(4-((5-(isoxazol-3-yl)-1H-pyrazolo[4,3-d]pyrimidin-7-yl)amino)phenyl)piperazin-1-yl)ethan-1-one] | 100 to 1000 nM
COc1cccc(-c2nc(Nc3cnn(C4CCN(C(C)(C)C)CC4)c3)c3[nH]ncc3n2)c1 [Example 407, N-(1-(1-(tert-butyl)piperidin-4-yl)-1H-pyrazol-4-yl)-5-(3-methoxyphenyl)-1H-pyrazolo[4,3-d]pyrimidin-7-amine] | 10 to 100 nM
c1ccc(-n2cc(Nc3nc(-c4ccc5cn[nH]c5c4)nc4cn[nH]c34)cn2)nc1 [Example 472, 5-(1H-indazol-6-yl)-N-(1-(pyridin-2-yl)-1H-pyrazol-4-yl)-1H-pyrazolo[4,3-d]pyrimidin-7-amine] | 100 to 1000 nM
COc1cc(Nc2nc(-c3ccc4cn[nH]c4c3)nc3cn[nH]c23)ccc1N1CCOCC1 [Example 54, 5-(1H-indazol-6-yl)-N-(3-methoxy-4-morpholinophenyl)-1H-pyrazolo[4,3-d]pyrimidin-7-amine] | < 10 nM
c1cc(-c2nc(Nc3cnn(C4CCOCC4)c3)c3[nH]ncc3n2)co1 [Example 110, 5-(furan-3-yl)-N-(1-(tetrahydro-2H-pyran-4-yl)-1H-pyrazol-4-yl)-1H-pyrazolo[4,3-d]pyrimidin-7-amine] | 10 to 100 nM
CC(C)(C)N1CCN(c2ccc(Nc3nc(-c4cccc(NS(C)(=O)=O)c4)nc4cn[nH]c34)cc2)CC1 [Example 39] | 100 to 1000 nM

SMILES | IC50
N#CC1(n2cc(Nc3nc(-c4ccoc4)nc4cn[nH]c34)cn2)CCCCC1 [Example 219, 1-(4-((5-(furan-3-yl)-1H-pyrazolo[4,3-d]pyrimidin-7-yl)amino)-1H-pyrazol-1-yl)cyclohexanecarbonitrile] | 100 to 1000 nM
CC(C)n1ncc(Nc2nc(C3CC3)nc3cn[nH]c23)c1Cl [Example 297, N-(5-chloro-1-isopropyl-1H-pyrazol-4-yl)-5-cyclopropyl-1H-pyrazolo[4,3-d]pyrimidin-7-amine] | 100 to 1000 nM
Cc1c(Nc2nc(C3CC3)nc3cn[nH]c23)cnn1C(C)C [Example 287, 5-cyclopropyl-N-(1-isopropyl-5-methyl-1H-pyrazol-4-yl)-1H-pyrazolo[4,3-d]pyrimidin-7-amine] | 100 to 1000 nM
CC(C(=O)O)n1cc(Nc2nc(C3CC3)nc3cn[nH]c23)cn1 (centres unmarked) [Example 504, 2-(4-((5-cyclopropyl-1H-pyrazolo[4,3-d]pyrimidin-7-yl)amino)-1H-pyrazol-1-yl)propanoic acid] | 100 to 1000 nM
FC(F)(F)Cn1cc(Nc2nc(C3CC3)nc3cn[nH]c23)cn1 [Example 374, 5-cyclopropyl-N-(1-(2,2,2-trifluoroethyl)-1H-pyrazol-4-yl)-1H-pyrazolo[4,3-d]pyrimidin-7-amine] | 10 to 100 nM
CC(C(=O)O)n1cc(Nc2nc(-c3ccc4cn[nH]c4c3)nc3cn[nH]c23)cn1 (centres unmarked) [Example 493, 2-(4-((5-(1H-indazol-6-yl)-1H-pyrazolo[4,3-d]pyrimidin-7-yl)amino)-1H-pyrazol-1-yl)propanoic acid] | 100 to 1000 nM
O=c1cc(Nc2nc(C3CC3)nc3cn[nH]c23)ccn1C1CC1 [Example 296, 1-cyclopropyl-4-((5-cyclopropyl-1H-pyrazolo[4,3-d]pyrimidin-7-yl)amino)pyridin-2(1H)-one] | 10 to 100 nM
CC(C)c1nc(Nc2cnn(C3CCN(C)CC3)c2)c2[nH]ncc2n1 [Example 184, 5-isopropyl-N-(1-(1-methylpiperidin-4-yl)-1H-pyrazol-4-yl)-1H-pyrazolo[4,3-d]pyrimidin-7-amine] | 100 to 1000 nM
c1ccc2sc(-c3nc(Nc4cnn(C5CCOCC5)c4)c4[nH]ncc4n3)nc2c1 [Example 413, 5-(benzo[d]thiazol-2-yl)-N-(1-(tetrahydro-2H-pyran-4-yl)-1H-pyrazol-4-yl)-1H-pyrazolo[4,3-d]pyrimidin-7-amine] | < 10 nM
CC(C)(C)N1CCC(n2cc(Nc3nc(-c4ccc5cn[nH]c5c4)nc4cn[nH]c34)cn2)CC1 [Example 468, N-(1-(1-(tert-butyl)piperidin-4-yl)-1H-pyrazol-4-yl)-5-(1H-indazol-6-yl)-1H-pyrazolo[4,3-d]pyrimidin-7-amine] | < 10 nM
COc1ccc(Nc2nc(-c3ccon3)nc3cn[nH]c23)cc1OC [Example 73, N-(3,4-dimethoxyphenyl)-5-(isoxazol-3-yl)-1H-pyrazolo[4,3-d]pyrimidin-7-amine] | 100 to 1000 nM
CN1CCC(n2cc(Nc3nc(-c4ccco4)nc4cn[nH]c34)cn2)CC1 [Example 198, 5-(furan-2-yl)-N-(1-(1-methylpiperidin-4-yl)-1H-pyrazol-4-yl)-1H-pyrazolo[4,3-d]pyrimidin-7-amine] | < 10 nM
CC(C)n1cc(Nc2nc(-c3ccc4cn[nH]c4c3)nc3cn[nH]c23)cn1 [Example 414, 5-(1H-indazol-6-yl)-N-(1-isopropyl-1H-pyrazol-4-yl)-1H-pyrazolo[4,3-d]pyrimidin-7-amine] | 10 to 100 nM
CC(=O)N1CCC(n2cc(Nc3nc(-c4ncco4)nc4cn[nH]c34)cn2)CC1 [Example 257, 1-(4-(4-((5-(oxazol-2-yl)-1H-pyrazolo[4,3-d]pyrimidin-7-yl)amino)-1H-pyrazol-1-yl)piperidin-1-yl)ethan-1-one] | 100 to 1000 nM
CC(C)Cn1cc(Nc2nc(C(C)(C)C)nc3cn[nH]c23)cn1 [Example 268, 5-(tert-butyl)-N-(1-isobutyl-1H-pyrazol-4-yl)-1H-pyrazolo[4,3-d]pyrimidin-7-amine] | 100 to 1000 nM
c1nn(C2CCOCC2)cc1Nc1nc(C2CC2)nc2cn[nH]c12 [Example 118, 5-cyclopropyl-N-(1-(tetrahydro-2H-pyran-4-yl)-1H-pyrazol-4-yl)-1H-pyrazolo[4,3-d]pyrimidin-7-amine] | 10 to 100 nM
COCCn1cc(Nc2nc(-c3ncco3)nc3cn[nH]c23)cn1 [Example 256, N-(1-(2-methoxyethyl)-1H-pyrazol-4-yl)-5-(oxazol-2-yl)-1H-pyrazolo[4,3-d]pyrimidin-7-amine] | 100 to 1000 nM
